Assay results published in ChEMBL document CHEMBL1208782, “Synthesis and pharmacological validation of a novel series of non-steroidal FXR agonists” (Bioorg Med Chem Lett, 2010).

Experiments:
Format in all cases: functional, cell-based
[1] = biological target: T1, Retinoic acid receptor alpha (Homo sapiens, UniProt P10276); test: Agonist activity at RARalpha-LBD expressed in HEK293 cells assessed as Gal4-DBD interaction by cellular mammalian one hybrid assay
T1 sequence (P10276 whole entry): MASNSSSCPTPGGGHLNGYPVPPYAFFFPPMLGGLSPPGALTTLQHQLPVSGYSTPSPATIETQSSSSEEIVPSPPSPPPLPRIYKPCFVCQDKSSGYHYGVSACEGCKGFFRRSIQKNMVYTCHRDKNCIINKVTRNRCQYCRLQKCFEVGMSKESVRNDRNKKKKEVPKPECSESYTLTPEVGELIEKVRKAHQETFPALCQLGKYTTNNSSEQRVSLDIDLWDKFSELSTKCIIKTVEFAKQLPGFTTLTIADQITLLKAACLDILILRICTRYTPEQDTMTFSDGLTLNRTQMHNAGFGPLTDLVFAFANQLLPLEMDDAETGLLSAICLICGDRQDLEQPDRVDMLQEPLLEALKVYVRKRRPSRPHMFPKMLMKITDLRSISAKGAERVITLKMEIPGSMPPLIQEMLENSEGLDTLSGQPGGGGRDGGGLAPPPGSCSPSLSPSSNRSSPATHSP

[2] = biological target: T2, Oxysterols receptor LXR-alpha (Homo sapiens, UniProt Q13133); test: Agonist activity at LXRalpha-LBD expressed in HEK293 cells assessed as Gal4-DBD interaction by cellular mammalian one hybrid assay
T2 sequence (Q13133 whole entry): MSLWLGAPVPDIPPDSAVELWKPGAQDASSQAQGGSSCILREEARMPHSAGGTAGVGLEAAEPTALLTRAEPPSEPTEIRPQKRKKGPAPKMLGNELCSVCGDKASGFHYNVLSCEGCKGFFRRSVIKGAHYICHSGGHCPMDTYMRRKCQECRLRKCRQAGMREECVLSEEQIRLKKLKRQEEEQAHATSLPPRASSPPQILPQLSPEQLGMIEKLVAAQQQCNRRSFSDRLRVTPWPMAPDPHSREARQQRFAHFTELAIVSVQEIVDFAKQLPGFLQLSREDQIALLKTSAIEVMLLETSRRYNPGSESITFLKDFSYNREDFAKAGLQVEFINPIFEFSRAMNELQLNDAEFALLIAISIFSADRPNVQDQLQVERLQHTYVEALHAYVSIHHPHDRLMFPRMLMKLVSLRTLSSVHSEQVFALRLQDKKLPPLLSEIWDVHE

[3] = biological target: T3, Retinoic acid receptor RXR-alpha (Homo sapiens, UniProt P19793); test: Agonist activity at RXRalpha-LBD expressed in HEK293 cells assessed as Gal4-DBD interaction by cellular mammalian one hybrid assay
T3 sequence (P19793 whole entry): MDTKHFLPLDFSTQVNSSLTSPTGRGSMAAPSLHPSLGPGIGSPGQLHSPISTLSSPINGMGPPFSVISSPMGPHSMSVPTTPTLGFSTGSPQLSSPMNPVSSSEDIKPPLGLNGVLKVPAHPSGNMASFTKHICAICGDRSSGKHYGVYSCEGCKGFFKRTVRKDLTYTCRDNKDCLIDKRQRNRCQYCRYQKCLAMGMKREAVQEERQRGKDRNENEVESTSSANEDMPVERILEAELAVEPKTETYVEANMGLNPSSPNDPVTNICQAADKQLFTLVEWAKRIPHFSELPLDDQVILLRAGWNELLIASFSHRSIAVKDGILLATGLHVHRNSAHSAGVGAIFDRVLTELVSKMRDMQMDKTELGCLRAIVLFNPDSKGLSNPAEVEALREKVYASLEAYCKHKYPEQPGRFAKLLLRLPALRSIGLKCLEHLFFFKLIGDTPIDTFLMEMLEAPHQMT

[4] = biological target: T4, Retinoic acid receptor beta (Homo sapiens, UniProt P10826); test: Agonist activity at RARbeta-LBD expressed in HEK293 cells assessed as Gal4-DBD interaction by cellular mammalian one hybrid assay
T4 sequence (P10826 whole entry): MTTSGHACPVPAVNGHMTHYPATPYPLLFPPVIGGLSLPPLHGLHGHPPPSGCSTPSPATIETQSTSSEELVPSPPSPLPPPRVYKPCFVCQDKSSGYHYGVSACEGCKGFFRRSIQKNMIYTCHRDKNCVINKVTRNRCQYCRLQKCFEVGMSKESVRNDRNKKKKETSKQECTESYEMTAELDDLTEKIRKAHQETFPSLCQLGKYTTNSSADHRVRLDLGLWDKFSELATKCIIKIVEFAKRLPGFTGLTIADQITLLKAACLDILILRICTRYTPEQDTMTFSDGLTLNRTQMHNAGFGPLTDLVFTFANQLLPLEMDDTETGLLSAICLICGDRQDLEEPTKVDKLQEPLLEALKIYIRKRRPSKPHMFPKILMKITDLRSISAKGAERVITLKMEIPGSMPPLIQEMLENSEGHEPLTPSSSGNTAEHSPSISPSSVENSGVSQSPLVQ

[5] = biological target: T5, Peroxisome proliferator-activated receptor delta (Homo sapiens) (UniProt Q03181); test: Agonist activity at PPAR-beta/delta-LBD expressed in HEK293 cells assessed as Gal4-DBD interaction by cellular mammalian one hybrid assay relative to control
T5 sequence (whole entry): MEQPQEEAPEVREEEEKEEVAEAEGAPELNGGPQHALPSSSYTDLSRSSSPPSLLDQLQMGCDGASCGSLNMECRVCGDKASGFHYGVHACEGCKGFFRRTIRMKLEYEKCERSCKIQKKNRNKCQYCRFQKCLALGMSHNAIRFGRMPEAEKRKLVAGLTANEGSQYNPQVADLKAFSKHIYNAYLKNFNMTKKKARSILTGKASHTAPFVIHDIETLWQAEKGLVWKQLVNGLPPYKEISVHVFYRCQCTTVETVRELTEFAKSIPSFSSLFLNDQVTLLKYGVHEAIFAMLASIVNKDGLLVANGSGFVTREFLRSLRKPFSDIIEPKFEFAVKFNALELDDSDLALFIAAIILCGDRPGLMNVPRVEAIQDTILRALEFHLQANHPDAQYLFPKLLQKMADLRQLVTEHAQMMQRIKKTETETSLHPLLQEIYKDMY

[6] = biological target: T6, Retinoic acid receptor RXR-alpha (Homo sapiens) (UniProt P19793); test: Agonist activity at RXRalpha-LBD expressed in HEK293 cells assessed as Gal4-DBD interaction by cellular mammalian one hybrid assay relative to retinoic acid
T6 sequence (whole entry): T3 sequence (P19793 whole entry)

Molecule CN(Cc1cccc(C(=O)O)c1)c1ccc(OCc2c(-c3c(Cl)cccc3Cl)noc2C2CC2)nc1C(F)(F)F has an EC50 [1] of over 10 µM, an EC50 [2] of over 10 µM and an EC50 [3] of over 10 µM. It also gave an EC50 [4] of over 10 µM, an Efficacy [5] of 0% and an Efficacy [6] of 0%.

CN(Cc1ccc(C(=O)O)cc1)c1ccc(OCc2c(-c3c(Cl)cccc3Cl)noc2C2CC2)nc1C(F)(F)F gave an EC50 [1] of over 10 µM, an EC50 [2] of over 10 µM and an EC50 [3] of over 10 µM. For the same molecule, the EC50 [4] was over 10 µM, the Efficacy [5] was 0% and the Efficacy [6] was 0%.

Work on CC(C)c1onc(-c2c(Cl)cccc2Cl)c1COc1ccc(N(C)Cc2ccc(C(=O)O)cc2)c(C(F)(F)F)n1 yielded an EC50 [1] of over 10 µM, an EC50 [2] of over 10 µM and an EC50 [3] of over 10 µM. For the same molecule, the EC50 [4] was over 10 µM, the Efficacy [5] was 0% and the Efficacy [6] was 0%.
